From ChEMBL document CHEMBL4325853, “Design, synthesis and antibacterial evaluation of 2,4-disubstituted-6-thiophenyl-pyrimidines” (Eur J Med Chem, 2019)
≈ marks a conversion by molar mass, not a printed value.

Assays:
[1] = Selectivity index, ratio of HC50 for human erythrocytes to MIC for methicillin-resistant Staphylococcus aureus ATCC 33591; assay type: toxicity; conditions: read-out: Selectivity Index
Staphylococcus aureus [2] = test: Antibacterial activity against methicillin-resistant Staphylococcus aureus isolate 3123 after 18 hrs by broth microdilution method; assay type: functional; conditions: isolate 3123, 18 h
Staphylococcus aureus [3] = test: Bactericidal activity against methicillin-resistant Staphylococcus aureus ATCC 43300 after 18 hrs by broth microdilution method; assay type: functional; conditions: ATCC 43300, 18 h
Staphylococcus aureus [4] = test: Ratio of MBC to MIC for methicillin-resistant Staphylococcus aureus ATCC 43300; assay type: functional
Staphylococcus aureus [5] = test: Antibacterial activity against methicillin-resistant Staphylococcus aureus isolate 4023 after 18 hrs by broth microdilution method; assay type: functional; conditions: isolate 4023, 18 h
Staphylococcus aureus [6] = test: Antibacterial activity against methicillin-resistant Staphylococcus aureus isolate 1428 after 18 hrs by broth microdilution method; assay type: functional; conditions: isolate 1428, 18 h
Staphylococcus aureus [7] = test: Antibacterial activity against methicillin-resistant Staphylococcus aureus ATCC 43300 after 18 hrs by broth microdilution method; assay type: functional; conditions: ATCC 43300, 18 h
Staphylococcus aureus [8] = test: Antibacterial activity against methicillin-resistant Staphylococcus aureus isolate 7717 after 18 hrs by broth microdilution method; assay type: functional; conditions: isolate 7717, 18 h
Staphylococcus aureus [9] = test: Antibacterial activity against methicillin-resistant Staphylococcus aureus isolate 3170 after 18 hrs by broth microdilution method; assay type: functional; conditions: isolate 3170, 18 h
Staphylococcus aureus [10] = test: Antibacterial activity against methicillin-resistant Staphylococcus aureus isolate 2158 after 18 hrs by broth microdilution method; assay type: functional; conditions: isolate 2158, 18 h
Staphylococcus aureus [11] = test: Antibacterial activity against methicillin-resistant Staphylococcus aureus isolate 2491 after 18 hrs by broth microdilution method; assay type: functional; conditions: isolate 2491, 18 h
Staphylococcus aureus [12] = test: Antibacterial activity against methicillin-resistant Staphylococcus aureus isolate 6515 after 18 hrs by broth microdilution method; assay type: functional; conditions: isolate 6515, 18 h
Staphylococcus aureus [13] = test: Potency index, ratio of methicillin MIC to test compound MIC for methicillin-resistant Staphylococcus aureus ATCC 33591; assay type: functional
Staphylococcus aureus [14] = test: Antibacterial activity against methicillin-resistant Staphylococcus aureus isolate 5239 after 18 hrs by broth microdilution method; assay type: functional; conditions: isolate 5239, 18 h
Staphylococcus aureus [15] = test: Antibacterial activity against methicillin-resistant Staphylococcus aureus isolate 7971 after 18 hrs by broth microdilution method; assay type: functional; conditions: isolate 7971, 18 h
Staphylococcus aureus [16] = test: Potency index, ratio of berberine MIC to test compound MIC for Staphylococcus aureus ATCC 29213; assay type: functional
Staphylococcus aureus [17] = test: Antibacterial activity against methicillin-resistant Staphylococcus aureus isolate 1947 after 18 hrs by broth microdilution method; assay type: functional; conditions: isolate 1947, 18 h
Staphylococcus aureus [18] = test: Antibacterial activity against Staphylococcus aureus ATCC 29213 after 18 hrs by broth microdilution method; assay type: functional; conditions: ATCC 29213, 18 h
Staphylococcus aureus [19] = test: Potency index, ratio of methicillin MIC to test compound MIC for methicillin-resistant Staphylococcus aureus ATCC BAA1720; assay type: functional
Staphylococcus aureus [20] = test: Antibacterial activity against methicillin-resistant Staphylococcus aureus isolate 5395 after 18 hrs by broth microdilution method; assay type: functional; conditions: isolate 5395, 18 h
[21] = biological target: T1, Cell division protein FtsZ (Staphylococcus aureus) (UniProt P0A031); test: Inhibition of recombinant Staphylococcus aureus FtsZ GTPase activity assessed as reduction in inorganic phosphate formation after 30 mins by colorimetric method
T1 sequence (whole entry): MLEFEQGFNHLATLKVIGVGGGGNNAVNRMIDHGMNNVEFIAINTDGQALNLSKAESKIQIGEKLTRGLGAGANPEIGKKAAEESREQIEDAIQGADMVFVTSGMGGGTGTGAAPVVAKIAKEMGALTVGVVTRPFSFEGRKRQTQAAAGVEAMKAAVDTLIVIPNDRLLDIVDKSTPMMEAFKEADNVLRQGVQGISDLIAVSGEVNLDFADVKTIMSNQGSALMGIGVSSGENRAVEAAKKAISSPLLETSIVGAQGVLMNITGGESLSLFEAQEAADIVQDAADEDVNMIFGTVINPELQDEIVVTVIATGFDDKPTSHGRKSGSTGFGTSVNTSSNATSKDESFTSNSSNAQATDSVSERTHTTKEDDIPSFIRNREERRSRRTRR

Staphylococcus aureus [22] = test: Antibacterial activity against methicillin-resistant Staphylococcus aureus ATCC BAA41 after 18 hrs by broth microdilution method; assay type: functional; conditions: ATCC BAA41, 18 h
Staphylococcus aureus [23] = test: Antibacterial activity against methicillin-resistant Staphylococcus aureus isolate 5056 after 18 hrs by broth microdilution method; assay type: functional; conditions: isolate 5056, 18 h
Staphylococcus aureus [24] = test: Antibacterial activity against methicillin-resistant Staphylococcus aureus ATCC BAA1720 after 18 hrs by broth microdilution method; assay type: functional; conditions: ATCC BAA1720, 18 h
Staphylococcus aureus [25] = test: Antibacterial activity against methicillin-resistant Staphylococcus aureus isolate 3096 after 18 hrs by broth microdilution method; assay type: functional; conditions: isolate 3096, 18 h
Staphylococcus aureus [26] = test: Antibacterial activity against methicillin-resistant Staphylococcus aureus isolate 8162 after 18 hrs by broth microdilution method; assay type: functional; conditions: isolate 8162, 18 h
Staphylococcus aureus [27] = test: Antibacterial activity against methicillin-resistant Staphylococcus aureus isolate 7587 after 18 hrs by broth microdilution method; assay type: functional; conditions: isolate 7587, 18 h
[28] = test system: Staphylococcus epidermidis; test: Antibacterial activity against Staphylococcus epidermidis ATCC 12228 after 18 hrs by broth microdilution method; assay type: functional; conditions: ATCC 12228, 18 h
Staphylococcus aureus [29] = test: Antibacterial activity against methicillin-resistant Staphylococcus aureus isolate 5426 after 18 hrs by broth microdilution method; assay type: functional; conditions: isolate 5426, 18 h
Staphylococcus aureus [30] = test: Potency index, ratio of methicillin MIC to test compound MIC for methicillin-resistant Staphylococcus aureus ATCC BAA41; assay type: functional
Staphylococcus aureus [31] = test: Antibacterial activity against methicillin-resistant Staphylococcus aureus isolate 7864 after 18 hrs by broth microdilution method; assay type: functional; conditions: isolate 7864, 18 h
Staphylococcus aureus [32] = test: Bactericidal activity against methicillin-resistant Staphylococcus aureus ATCC BAA41 after 18 hrs by broth microdilution method; assay type: functional; conditions: ATCC BAA41, 18 h
Staphylococcus aureus [33] = test: Antibacterial activity against methicillin-resistant Staphylococcus aureus isolate 7536 after 18 hrs by broth microdilution method; assay type: functional; conditions: isolate 7536, 18 h
[34] = Selectivity index, ratio of HC50 for human erythrocytes to MIC for methicillin-resistant Staphylococcus aureus ATCC 43300; assay type: toxicity; conditions: read-out: Selectivity Index
Staphylococcus aureus [35] = test: Antibacterial activity against methicillin-resistant Staphylococcus aureus isolate 8179 after 18 hrs by broth microdilution method; assay type: functional; conditions: isolate 8179, 18 h
Enterococcus faecalis [36] = test: Bactericidal activity against vancomycin-resistant Enterococcus faecalis ATCC 700221 after 18 hrs by broth microdilution method; assay type: functional; conditions: ATCC 700221, 18 h
Staphylococcus aureus [37] = test: Antibacterial activity against methicillin-resistant Staphylococcus aureus isolate 5035 after 18 hrs by broth microdilution method; assay type: functional; conditions: isolate 5035, 18 h
Staphylococcus aureus [38] = test: Antibacterial activity against methicillin-resistant Staphylococcus aureus isolate 4548 after 18 hrs by broth microdilution method; assay type: functional; conditions: isolate 4548, 18 h
Staphylococcus aureus [39] = test: Antibacterial activity against methicillin-resistant Staphylococcus aureus isolate 1610 after 18 hrs by broth microdilution method; assay type: functional; conditions: isolate 1610, 18 h
Enterococcus faecalis [40] = test: Antibacterial activity against Enterococcus faecalis ATCC 29212 after 18 hrs by broth microdilution method; assay type: functional; conditions: ATCC 29212, 18 h
Staphylococcus aureus [41] = test: Antibacterial activity against methicillin-resistant Staphylococcus aureus isolate 7917 after 18 hrs by broth microdilution method; assay type: functional; conditions: isolate 7917, 18 h

Question: Which selectivity ratio [1] does the source give for `CC(C)(C)c1ccc(CN2CCCN(CCc3cc(-c4cccs4)nc(-c4ccncc4)n3)CC2)cc1` here?
Answer: The selectivity ratio was over 32.

Question: And the MIC90 (Staphylococcus aureus [2])?
Answer: The MIC90 was 2 µg/mL (≈ 3.91 µM).

Question: And the MBC (Staphylococcus aureus [3])?
Answer: The MBC was 4 µg/mL (≈ 7.82 µM).

Question: What about the Ratio (Staphylococcus aureus [4]) of the same compound?
Answer: Its Ratio is 2.

Question: What about the MIC90 (Staphylococcus aureus [5]) of the same compound?
Answer: The MIC90 was 2 µg/mL (≈ 3.91 µM).

Question: What about the MIC90 (Staphylococcus aureus [6]) of the same compound?
Answer: The MIC90 was 2 µg/mL (≈ 3.91 µM).

Question: What about the MIC90 (Staphylococcus aureus [7]) of the same compound?
Answer: The MIC90 was 2 µg/mL (≈ 3.91 µM).

Question: What about the MIC90 (Staphylococcus aureus [8]) of the same compound?
Answer: The MIC90 was 2 µg/mL (≈ 3.91 µM).

Question: What about the MIC90 (Staphylococcus aureus [9]) of the same compound?
Answer: The MIC90 was 2 µg/mL (≈ 3.91 µM).

Question: And the MIC90 (Staphylococcus aureus [10])?
Answer: Its MIC90 is 2 µg/mL (≈ 3.91 µM).

Question: And the MIC90 (Staphylococcus aureus [11])?
Answer: The MIC90 was 4 µg/mL (≈ 7.82 µM).

Question: And the MIC90 (Staphylococcus aureus [12])?
Answer: Its MIC90 is 4 µg/mL (≈ 7.82 µM).

Question: And the Ratio (Staphylococcus aureus [13])?
Answer: Its Ratio is over 100.

Question: And the MIC90 (Staphylococcus aureus [14])?
Answer: The MIC90 was 2 µg/mL (≈ 3.91 µM).

Question: What about the MIC90 (Staphylococcus aureus [15]) of the same compound?
Answer: The MIC90 was 2 µg/mL (≈ 3.91 µM).

Question: What about the Ratio (Staphylococcus aureus [16]) of the same compound?
Answer: Its Ratio is 50 - 100.

Question: What about the MIC90 (Staphylococcus aureus [17]) of the same compound?
Answer: Its MIC90 is 2 µg/mL (≈ 3.91 µM).

Question: What about the MIC90 (Staphylococcus aureus [18]) of the same compound?
Answer: Its MIC90 is 2 µg/mL (≈ 3.91 µM).

Question: What about the Ratio (Staphylococcus aureus [19]) of the same compound?
Answer: The Ratio was over 100.

Question: And the MIC90 (Staphylococcus aureus [20])?
Answer: The MIC90 was 2 µg/mL (≈ 3.91 µM).

Question: What about the inhibition [21] of the same compound?
Answer: Its inhibition is “Dose-dependent effect”.

Question: What about the MIC90 (Staphylococcus aureus [22]) of the same compound?
Answer: The MIC90 was 2 µg/mL (≈ 3.91 µM).

Question: What about the MIC90 (Staphylococcus aureus [23]) of the same compound?
Answer: The MIC90 was 2 µg/mL (≈ 3.91 µM).

Question: What about the MIC90 (Staphylococcus aureus [24]) of the same compound?
Answer: The MIC90 was 2 µg/mL (≈ 3.91 µM).

Question: What about the MIC90 (Staphylococcus aureus [25]) of the same compound?
Answer: The MIC90 was 2 µg/mL (≈ 3.91 µM).

Question: And the MIC90 (Staphylococcus aureus [26])?
Answer: Its MIC90 is 2 µg/mL (≈ 3.91 µM).

Question: And the MIC90 (Staphylococcus aureus [27])?
Answer: The MIC90 was 2 µg/mL (≈ 3.91 µM).

Question: And the MIC90 [28]?
Answer: The MIC90 was 2 µg/mL (≈ 3.91 µM).

Question: And the MIC90 (Staphylococcus aureus [29])?
Answer: The MIC90 was 2 µg/mL (≈ 3.91 µM).

Question: What about the Ratio (Staphylococcus aureus [30]) of the same compound?
Answer: Its Ratio is over 100.

Question: What about the MIC90 (Staphylococcus aureus [31]) of the same compound?
Answer: The MIC90 was 2 µg/mL (≈ 3.91 µM).

Question: What about the MBC (Staphylococcus aureus [32]) of the same compound?
Answer: Its MBC is 2 µg/mL (≈ 3.91 µM).

Question: What about the MIC90 (Staphylococcus aureus [33]) of the same compound?
Answer: The MIC90 was 2 µg/mL (≈ 3.91 µM).

Question: And the selectivity ratio [34]?
Answer: Its selectivity ratio is over 32.

Question: And the MIC90 (Staphylococcus aureus [35])?
Answer: The MIC90 was 2 µg/mL (≈ 3.91 µM).

Question: And the MBC (Enterococcus faecalis [36])?
Answer: Its MBC is 4 µg/mL (≈ 7.82 µM).

Question: And the MIC90 (Staphylococcus aureus [37])?
Answer: Its MIC90 is 2 µg/mL (≈ 3.91 µM).

Question: What about the MIC90 (Staphylococcus aureus [38]) of the same compound?
Answer: Its MIC90 is 2 µg/mL (≈ 3.91 µM).

Question: And the MIC90 (Staphylococcus aureus [39])?
Answer: The MIC90 was 4 µg/mL (≈ 7.82 µM).

Question: And the MIC90 (Enterococcus faecalis [40])?
Answer: Its MIC90 is 2 µg/mL (≈ 3.91 µM).

Question: What about the MIC90 (Staphylococcus aureus [41]) of the same compound?
Answer: Its MIC90 is 2 µg/mL (≈ 3.91 µM).
